These molecules were tested against T1, Dihydrofolate reductase (Rattus norvegicus, UniProt Q920D2) (assay: Inhibitory activity against dihydrofolate reductase of rat liver).
T1 sequence (Q920D2 whole entry): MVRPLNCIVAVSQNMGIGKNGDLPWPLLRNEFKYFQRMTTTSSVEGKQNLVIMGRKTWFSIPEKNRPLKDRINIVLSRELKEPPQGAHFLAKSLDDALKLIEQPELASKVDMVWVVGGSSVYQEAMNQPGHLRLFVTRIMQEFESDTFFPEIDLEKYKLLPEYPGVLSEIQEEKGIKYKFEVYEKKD
Work on `Nc1nc(N)c2c(Cl)c(NCc3cccc(Br)c3)ccc2n1` yielded an IC50 of 7.59 nM. `Nc1nc(N)c2c(Cl)c(NC(=O)Cc3ccc4ccccc4c3)ccc2n1` was tested, and the IC50 was 5.01 nM. `Nc1nc(N)c2c(S(=O)(=O)c3ccc4ccccc4c3)cccc2n1` gave an IC50 of 15100 nM. `Nc1nc(N)c2cc(Cl)ccc2n1` was tested, and the IC50 was 3980 nM. `Nc1nc(N)c2c(Cl)c(N)ccc2n1` gave an IC50 of 661 nM. With `Nc1nc(N)c2cc(C=O)ccc2n1` the IC50 was 10000 nM. `NCc1ccc2nc(N)nc(N)c2c1` gave an IC50 of 9330 nM. For `Nc1nc(N)c2cc(NC(=O)Cc3ccc4ccccc4c3)ccc2n1`, the IC50 was 5.01 nM. `Nc1nc(N)c2c(Sc3ccc4ccccc4c3)cccc2n1` gave an IC50 of 7.08 nM. With `Nc1nc(N)c2cc(NC(=O)Cc3ccc(Cl)cc3)ccc2n1` the IC50 was 22.9 nM. With `Nc1nc(N)c2c(/C=C\c3ccc4ccccc4c3)cccc2n1` the IC50 was 5250 nM. For `Nc1nc(N)c2c(Cl)cccc2n1`, the IC50 was 562 nM. Work on `Nc1nc(N)c2c(Cl)c(Cl)ccc2n1` yielded an IC50 of 200 nM. `Cc1c(NC(=O)Cc2ccc(Cl)c(Cl)c2)ccc2nc(N)nc(N)c12` gave an IC50 of 17 nM. For `Nc1nc(N)c2c([S+]([O-])c3ccc(Cl)c(Cl)c3)cccc2n1` (stereo not drawn), the IC50 was 55000 nM. For `Nc1nc(N)c2cc(NCc3ccc(Cl)c(Cl)c3)ccc2n1`, the IC50 was 18.2 nM. Molecule `Nc1nc(N)c2cc(Sc3ccc(Cl)c(Cl)c3)ccc2n1` has an IC50 of 11 nM. Work on `Nc1nc(N)c2cc([S+]([O-])c3ccc4ccccc4c3)ccc2n1` (stereo not drawn) yielded an IC50 of 7.08 nM. `Nc1nc(N)c2c(CSc3ccc4ccccc4c3)cccc2n1` gave an IC50 of 10 nM. `Nc1nc(N)c2c(/C=C/c3ccc4ccccc4c3)cccc2n1` was tested, and the IC50 was 3020 nM. Molecule `Cc1ccc2nc(N)nc(N)c2c1` has an IC50 of 2190 nM. `Nc1nc(N)c2c(S(=O)(=O)c3ccc(Cl)c(Cl)c3)cccc2n1` was tested, and the IC50 was 57500 nM. In the case of `Cc1c(NC(=O)Cc2cccc(Br)c2)ccc2nc(N)nc(N)c12`, the IC50 is reported as 33.9 nM. With `Nc1nc(N)c2c(CSc3ccc(Cl)cc3)cccc2n1` the IC50 was 19.9 nM. For `Cc1c(NC(=O)Cc2ccc3ccccc3c2)ccc2nc(N)nc(N)c12`, the IC50 was 4.17 nM. Molecule `Nc1nc(N)c2c(Cl)c(Br)ccc2n1` has an IC50 of 100 nM. In the case of `Nc1nc(N)c2c(Cl)c(NC(=O)Cc3ccc(Cl)c(Cl)c3)ccc2n1`, the IC50 is reported as 24 nM. Molecule `Nc1nc(N)c2c(Sc3ccc(Cl)c(Cl)c3)cccc2n1` has an IC50 of 200 nM. With `O=[N+]([O-])c1ccc(/C=C/C=C/c2ccccc2)cc1` the IC50 was 3.98 nM. Work on `Cc1cccc2nc(N)nc(N)c12` [GNF-Pf-690] yielded an IC50 of 813 nM. `Nc1ccc2nc(N)nc(N)c2c1` [QUINAZOLINE-2,4,6-TRIAMINE] was tested, and the IC50 was 26900 nM. `Nc1nc(N)c2c(CCc3ccc4ccccc4c3)cccc2n1` [TCMDC-141975] showed an IC50 of 19.9 nM. `Nc1nc(N)c2cc(Sc3cccc(C(F)(F)F)c3)ccc2n1` [WR-159412] gave an IC50 of 36.3 nM.

Reference: BindingDB's records for doi:10.1021/jm00139a009 (1981)
